These results are taken from patent US20100215625A1, “EFFICIENT PREPARATION OF NAPHTHOQUINONE ANTICANCER ACTIVE INGREDIENTS” (TAHEEBO JAPAN CO., LTD., priority 2009, published 2010).

The test system of data set [1] is MCF-7 cells (breast cancer cells). The data set can be described thus: Cytotoxicity experiment 2: anticancer activity against MCF-7 cells, viable cell count after 3 days. The settings on record: Homo sapiens, MCF7, 72 h, read-out: Cell Viabilities (%) of MCF-7 (Breast Cancer Cells).
Method: A-549 cells (lung cancer cells; Strain No. ECACC86012804; available from Laboratory Products Dept. of Dainippon Pharmaceuticals Inc. (now Dainippon Sumitomo Pharma Co., Ltd.)) were preliminarily seeded in 35 mm petri dishes containing Dulbecco's modified Eagle medium (DMEM) containing 20% of fetal bovine serum (FBS) in a concentration of 1×10^5/ml. The seeded cells were incubated at 36° C. for 1 day under 5% CO2 and were confirmed to be stuck at the bottom of the petri dishes. […] These groups were incubated at 36° C. for 3 days, and viable cells were counted and viabilities were calculated.
Cytotoxicity experiments for MCF-7 cells (breast cancer cells; Strain No. ECACC86012803; available from Laboratory Products Dept. of Dainippon Pharmaceuticals Inc. (now Dainippon Sumitomo Pharma Co., Ltd.)) were carried out in the similar manner to the Experiment 1.
Data set [2] deals with A-549 cells (lung cancer cells). The data set can be described thus: Cytotoxicity experiment 1: anticancer activity against A-549 cells, viable cell count after 3 days. Conditions: Homo sapiens, A549, 72 h, read-out: Cell Viabilities (%) of A-549 (Lung Cancer Cells).
Method: A-549 cells (lung cancer cells; Strain No. ECACC86012804; available from Laboratory Products Dept. of Dainippon Pharmaceuticals Inc. (now Dainippon Sumitomo Pharma Co., Ltd.)) were preliminarily seeded in 35 mm petri dishes containing Dulbecco's modified Eagle medium (DMEM) containing 20% of fetal bovine serum (FBS) in a concentration of 1×10^5/ml. The seeded cells were incubated at 36° C. for 1 day under 5% CO2 and were confirmed to be stuck at the bottom of the petri dishes. The resulting A-549 cells were divided into three groups, to the first group of which were added extracts from a medium used in the ingredient-production system in concentrations of 1, 10, 100 and 1000 μg/ml, to the second group of which was added NQ801 which was known to have an anticancer activity (see Patent Document 2) in said concentrations, and to the third group of which were added ether fractions extracted from Tabebuia avellanedae barks in a conventional manner in said concentrations. These groups were incubated at 36° C. for 3 days, and viable cells were counted and viabilities were calculated.
Data set [3] concerns various tumor cells. Conditions: known from Patent Documents 1, 2 and Nonpatent Document 1; cited from earlier work.

Regarding `C[C@H](O)c1cc2c(o1)C(=O)c1cccc(O)c1C2=O` [NQ801, (S)-2-(1-hydroxyethyl)-5-hydroxynaphtho[2,3-b]furan-4,9-dione], in data set [1], the viability at 1 µg/mL was determined as 90%, the viability at 10 µg/mL came to 60%, the viability at 100 µg/mL was 20% and the viability at 1000 µg/mL came to 0%. Besides, in data set [2], the viability at 1 µg/mL was 90%, the viability at 10 µg/mL was 60%, the viability at 100 µg/mL amounted to 30% and the viability at 1000 µg/mL was 0%. For the same compound, the “Cytotoxicity against various tumor cells” value in data set [3] is listed as “potent cytotoxicity”.
